The subject of the assay is phosphatidylserine (PS)-containing liposomes (PC/PS vesicles). The assay can be described thus: Liposome binding assay (Trp-to-dansyl FRET) with large unilamellar vesicles. More on the design: key to Liposome binding assay: “Y” means PS-selective (or apoptotic cell-specific) binding is observed; N means no or insignificant membrane binding is observed; “Nonselective” refers to membrane binding independent on PS. The conditions noted are these: for Liposome binding assay: dansyl FRET assay. The protocol:
The binding of cLac to lipid membrane can be analyzed by any method known it the art. For example, by the fluorescence assay (Trp-to-dansyl FRET) described herein. Basically, large unilamellar vesicles (100 nm in diameter) were prepared with phosphatidylcholine (PC) and varied percentages of PS. All vesicles contained 5% dansyl-labeled PE to serve as a reporting group. The peptide-vesicle binding was monitored by the fluorescence resonance energy transfer (FRET) from Trp to the dansyl group. Emission of sensitized dansyl is monitored at 520 nm and Trp emission is monitored near 350 nm. Membrane binding of cLac to the PC/PS vesicles produces a sensitized dansyl emission at 520 nm with a concurrent decrease of Trp emission near 350 nm.
The peptide-membrane binding was evaluated via a fluorescence assay: large unilamellar vesicles (100 nm in diameter) were prepared with PC and varied percentages of PS. All vesicles contained 5% dansyl-labeled PE to serve as a reporting group. The peptide-vesicle binding was monitored by the fluorescence resonance energy transfer (FRET) from Trp to the dansyl group.

Entries after “also recorded” stand apart in the source; their conditions may differ. Non-standard residues stand in square brackets, D forms with d. Bip = N[C@@H](Cc1ccc(-c2ccccc2)cc1)C(=O)O

Regarding “D-WBipGHIQGGRGGGD (cyclo([dW][Bip]GHIQGGRGGGD); SMILES CC[C@H](C)[C@@H]1NC(=O)[C@H](Cc2c[nH]cn2)NC(=O)CNC(=O)[C@H](Cc2ccc(-c3ccccc3)cc2)NC(=O)[C@@H](Cc2c[nH]c3ccccc23)NC(=O)[C@H](CC(=O)O)NC(=O)CNC(=O)CNC(=O)CNC(=O)[C@H](CCCNC(=N)N)NC(=O)CNC(=O)CNC(=O)[C@H](CCC(N)=O)NC1=O) [cLac-D-Trp]”, the Liposome binding assay entry is listed as “Y”.
Still for that read-out and setting: as for “Lac-1: cLac variant peptide, SEQ. ID. NO. 35 (WGHIQGRGGGD)”, the entry is “N”.
Same read-out and setting: the entry for “Lac-1R: cLac variant peptide, SEQ. ID. NO. 36 (GGGRGQIHGWD)” is “N”.
Consider “Lac-2: cLac variant peptide, SEQ. ID. NO. 37 (WGHIQGGRGGGD)”, for which the Liposome binding assay result is recorded as “N”.
For “Lac-Tph: cLac variant peptide, SEQ. ID. NO. 39 (WFGHIQGGRGGGD)”, the Liposome binding assay result is “Nonselective”.
The same measure, in the same setting: the entry for “WBipGHIQAGRGGGD (cyclo(W[Bip]GHIQAGRGGGD); SMILES CC[C@H](C)[C@@H]1NC(=O)[C@H](Cc2c[nH]cn2)NC(=O)CNC(=O)[C@H](Cc2ccc(-c3ccccc3)cc2)NC(=O)[C@H](Cc2c[nH]c3ccccc23)NC(=O)[C@H](CC(=O)O)NC(=O)CNC(=O)CNC(=O)CNC(=O)[C@H](CCCNC(=N)N)NC(=O)CNC(=O)[C@H](C)NC(=O)[C@H](CCC(N)=O)NC1=O) [cLac-A1]” is “Y”; for “WBipGHIQGARGGGD (cyclo(W[Bip]GHIQGARGGGD); SMILES CC[C@H](C)[C@@H]1NC(=O)[C@H](Cc2c[nH]cn2)NC(=O)CNC(=O)[C@H](Cc2ccc(-c3ccccc3)cc2)NC(=O)[C@H](Cc2c[nH]c3ccccc23)NC(=O)[C@H](CC(=O)O)NC(=O)CNC(=O)CNC(=O)CNC(=O)[C@H](CCCNC(=N)N)NC(=O)[C@H](C)NC(=O)CNC(=O)[C@H](CCC(N)=O)NC1=O) [cLac-A2]” it is “Y”.
Turning to “WBipGHIQGGGRGGGD (cyclo(W[Bip]GHIQGGGRGGGD); SMILES CC[C@H](C)[C@@H]1NC(=O)[C@H](Cc2c[nH]cn2)NC(=O)CNC(=O)[C@H](Cc2ccc(-c3ccccc3)cc2)NC(=O)[C@H](Cc2c[nH]c3ccccc23)NC(=O)[C@H](CC(=O)O)NC(=O)CNC(=O)CNC(=O)CNC(=O)[C@H](CCCNC(=N)N)NC(=O)CNC(=O)CNC(=O)CNC(=O)[C@H](CCC(N)=O)NC1=O) [cLac-33G]”, the Liposome binding assay entry is “Y”.
Still for that read-out and setting: as for “WBipGHIQGGRGGAD (cyclo(W[Bip]GHIQGGRGGAD); SMILES CC[C@H](C)[C@@H]1NC(=O)[C@H](Cc2c[nH]cn2)NC(=O)CNC(=O)[C@H](Cc2ccc(-c3ccccc3)cc2)NC(=O)[C@H](Cc2c[nH]c3ccccc23)NC(=O)[C@H](CC(=O)O)NC(=O)[C@H](C)NC(=O)CNC(=O)CNC(=O)[C@H](CCCNC(=N)N)NC(=O)CNC(=O)CNC(=O)[C@H](CCC(N)=O)NC1=O) [cLac-A5]”, the entry is “Y”.
For the substance “WBipGHIQGGRGGGD (cyclo(W[Bip]GHIQGGRGGGD); SMILES CC[C@H](C)[C@@H]1NC(=O)[C@H](Cc2c[nH]cn2)NC(=O)CNC(=O)[C@H](Cc2ccc(-c3ccccc3)cc2)NC(=O)[C@H](Cc2c[nH]c3ccccc23)NC(=O)[C@H](CC(=O)O)NC(=O)CNC(=O)CNC(=O)CNC(=O)[C@H](CCCNC(=N)N)NC(=O)CNC(=O)CNC(=O)[C@H](CCC(N)=O)NC1=O) [cLac-2, biphenylalanine replaces Phe]”, the Liposome binding assay entry is on record as “Y”. In addition, the “binding to PC-alone liposomes” value (FRET, PC-alone liposomes) is reported as “no binding”. Further, the “binding to PC/PS liposomes (sensitized dansyl emission at 520 nm)” value (FRET, PC/PS vesicles) was “clearly elicits a sensitized dansyl emission; also recorded: only with PC/PS liposomes”. The “binding to cholesterol-containing membranes without PS” value (cholesterol-containing PC liposomes) is recorded as “non-specific binding”. In addition, under “cholesterol-containing liposomes with PS vs without PS”, the “PS-selective binding in the presence of cholesterol” value is “able to differentiate PS-containing vesicles from PS-absent vesicles”. Where the note is “peptide at saturating concentration 50 μM”, the “dansyl fluorescence of vesicles containing 20% PS relative to 5% PS” value is on record as “close to four-fold”. In addition, for the setting “titration with PC/PS vesicles, sensitized dansyl emission, read-out: apparent dissociation constant (Kd)”, the Kd was around 15 µM.

(Values after US9133245B2, “Cyclic lactadherin peptide mimetics and their uses” (TRUSTEES OF BOSTON COLLEGE, priority 2011, dated 2015).)
